Results reported in BigSolDB 2.1.

CC1=CC(=O)c2ccccc2C1=O
solubility (mole fraction) (in benzene, 299.44 K): 0.109 | solubility (mole fraction) (in benzene, 304.83 K): 0.13 | solubility (mole fraction) (in benzene, 309.71 K): 0.152 | solubility (mole fraction) (in benzene, 313.92 K): 0.174 | solubility (mole fraction) (in benzene, 317.75 K): 0.197 | solubility (mole fraction) (in benzene, 321.86 K): 0.224 | solubility (mole fraction) (in benzene, 326.75 K): 0.262 | solubility (mole fraction) (in benzene, 330.75 K): 0.297 | solubility (mole fraction) (in benzene, 334.65 K): 0.334 | solubility (mole fraction) (in benzene, 338.96 K): 0.379 | solubility (mole fraction) (in ethylbenzene, 302.85 K): 0.0976 | solubility (mole fraction) (in ethylbenzene, 309.44 K): 0.122 | solubility (mole fraction) (in ethylbenzene, 314.77 K): 0.146 | solubility (mole fraction) (in ethylbenzene, 319.53 K): 0.173 | solubility (mole fraction) (in ethylbenzene, 323.75 K): 0.199 | solubility (mole fraction) (in ethylbenzene, 327.93 K): 0.228 | solubility (mole fraction) (in ethylbenzene, 331.75 K): 0.26 | solubility (mole fraction) (in ethylbenzene, 335.44 K): 0.297 | solubility (mole fraction) (in ethylbenzene, 339.42 K): 0.342 | solubility (mole fraction) (in ethylbenzene, 343.86 K): 0.396 | solubility (mole fraction) (in m-xylene, 301.65 K): 0.127 | solubility (mole fraction) (in m-xylene, 307.74 K): 0.151 | solubility (mole fraction) (in m-xylene, 312.76 K): 0.176 | solubility (mole fraction) (in m-xylene, 317.36 K): 0.202 | solubility (mole fraction) (in m-xylene, 321.64 K): 0.23 | solubility (mole fraction) (in m-xylene, 325.94 K): 0.258 | solubility (mole fraction) (in m-xylene, 329.73 K): 0.288 | solubility (mole fraction) (in m-xylene, 333.64 K): 0.323 | solubility (mole fraction) (in m-xylene, 337.61 K): 0.364 | solubility (mole fraction) (in m-xylene, 341.55 K): 0.411 | solubility (mole fraction) (in o-xylene, 302.95 K): 0.14 | solubility (mole fraction) (in o-xylene, 309.24 K): 0.169 | solubility (mole fraction) (in o-xylene, 314.25 K): 0.194 | solubility (mole fraction) (in o-xylene, 318.34 K): 0.219 | solubility (mole fraction) (in o-xylene, 322.45 K): 0.245 | solubility (mole fraction) (in o-xylene, 326.77 K): 0.274 | solubility (mole fraction) (in o-xylene, 330.54 K): 0.305 | solubility (mole fraction) (in o-xylene, 334.23 K): 0.34 | solubility (mole fraction) (in o-xylene, 338.32 K): 0.383 | solubility (mole fraction) (in o-xylene, 342.43 K): 0.432 | solubility (mole fraction) (in p-xylene, 302.5 K): 0.129 | solubility (mole fraction) (in p-xylene, 309.53 K): 0.158 | solubility (mole fraction) (in p-xylene, 314.64 K): 0.184 | solubility (mole fraction) (in p-xylene, 318.96 K): 0.21 | solubility (mole fraction) (in p-xylene, 323.35 K): 0.239 | solubility (mole fraction) (in p-xylene, 327.68 K): 0.269 | solubility (mole fraction) (in p-xylene, 332.02 K): 0.304 | solubility (mole fraction) (in p-xylene, 335.89 K): 0.344 | solubility (mole fraction) (in p-xylene, 340.1 K): 0.39 | solubility (mole fraction) (in p-xylene, 344.24 K): 0.44 | solubility (mole fraction) (in toluene, 303.44 K): 0.119 | solubility (mole fraction) (in toluene, 308.84 K): 0.143 | solubility (mole fraction) (in toluene, 313.63 K): 0.166 | solubility (mole fraction) (in toluene, 317.65 K): 0.189 | solubility (mole fraction) (in toluene, 321.85 K): 0.216 | solubility (mole fraction) (in toluene, 325.99 K): 0.246 | solubility (mole fraction) (in toluene, 330.04 K): 0.277 | solubility (mole fraction) (in toluene, 333.86 K): 0.311 | solubility (mole fraction) (in toluene, 337.8 K): 0.351 | solubility (mole fraction) (in toluene, 342.59 K): 0.404
